# In patent US6949536B2, “Sulfonylbenzene compounds as anti-inflammatory/analgesic agents” (Pfizer, Inc., priority 1998, dated 2005):
# Structures can show the parent of a compound that is named as a salt.
row,SMILES,melting point
1,"Cc1cc(-n2nc(C(F)(F)F)cc2-c2ccc(-c3cscn3)cc2)ccc1S(C)(=O)=O (as salt: hydrochloride) [Example 101, 4-{4-[1-[3-Methyl-4-(methylsulfonyl)phenyl]-3-(trifluoromethyl)-1H-pyrazol-5-yl]phenyl}-1,3-thiazole]",147 to 149 °C
2,"Cc1ccc(-c2ccc(S(C)(=O)=O)cc2)n1-c1ccc(-c2ccc[nH]2)cc1 [Example 47, 2-Methyl-5-[4-(methylsulfonyl)phenyl]-1-[4-(2-pyrrolyl)phenyl]-1H-pyrrole]",225 to 227 °C
3,"CS(=O)(=O)c1ccc(-n2cc(C(F)(F)F)nc2-c2ccc(-c3cccs3)cc2)cc1 [Example 52, 1-[4-(Methylsulfonyl)phenyl]-2-[4-(2-thienyl)phenyl]-4-(trifluoromethyl)-1H-imidazole]",95 to 97 °C
4,"NS(=O)(=O)c1ccc(-n2nc(C(F)(F)F)cc2-c2ccc(-c3ccco3)cc2)cc1Cl (as salt: hydrochloride) [Example 144, 2-Chloro-4-[5-[4-(2-furyl)phenyl]-3-(trifluoromethyl)-1H-pyrazol-1-yl]benzenesulfonamide]",192.6 °C
5,"Cc1cc(-n2c(C)ccc2-c2ccc(S(C)(=O)=O)cc2)ccc1-c1ccco1 [Example 40, 1-[4-(2-Furyl)-3-methylphenyl]-2-methyl-5-[4-(methylsulfonyl)phenyl]-1H-pyrrole]",160 to 162 °C
6,"COc1cc(-c2cc(C(F)(F)F)nn2-c2ccc(S(C)(=O)=O)cc2)ccc1-c1ccco1 (as salt: hydrochloride) [Example 81, 1-[4-(Methylsulfonyl)phenyl]-5-[4-(2-furyl)-3-methoxyphenyl]-3-(trifluoromethyl)-1H-pyrazole]",138 to 140 °C
7,"Cc1cc(-c2cc(C(F)(F)F)nn2-c2ccc(S(N)(=O)=O)cc2)ccc1-c1cocn1 (as salt: hydrochloride) [Example 116, 4-[5-[3-Methyl-4-(1,3-oxazol-4-yl)phenyl]-3-(trifluoromethyl)-1H-pyrazol-1-yl]benzenesulfonamide]",112 to 114 °C
8,"CS(=O)(=O)c1ccc(-n2nc(C(F)(F)F)cc2-c2ccc(-c3cscn3)c(F)c2)cc1F [Example 105, 4-{4-[1-[3-Fluoro-4-(methylsulfonyl)phenyl]-3-(trifluoromethyl)-1H-pyrazol-5-yl]-2-fluorophenyl}-1,3-thiazole]",156 to 158 °C
9,"NS(=O)(=O)c1ccc(-n2nc(C(F)(F)F)cc2-c2ccc(-c3ccco3)cc2)cc1F (as salt: hydrochloride) [Example 137, 2-Fluoro-4-[5-[4-(2-furyl)phenyl]-3-(trifluoromethyl)-1H-pyrazol-1-yl]benzenesulfonamide]",151 °C
10,"Cc1onc(-c2ccc(S(C)(=O)=O)cc2)c1-c1ccc(-c2cscn2)cc1 [Example 189, 5-Methyl-3-[4-(methylsulfonyl)phenyl]-4-[4-(1,3-thiazol-4-yl)phenyl]isoxazole]",159 °C
11,"CC(=O)Nc1cnn(-c2ccc(S(C)(=O)=O)c(F)c2)c1-c1ccc(-c2cscn2)cc1 [Example 164, N-[1-[3-Fluoro-4-(methylsulfonyl)phenyl]-5-[4-(1,3-thiazol-4-yl)phenyl]-1H-pyrazol-4-yl]acetamide]",225.2 °C
12,"Cc1cc(-c2ccc(-c3ccoc3)cc2)n(-c2ccc(S(C)(=O)=O)cc2)c1 [Example 56, 2-[4-(3-Furyl)phenyl]-4-methyl-1-[4-(methylsulfonyl)phenyl]-1H-pyrrole]",193 to 195 °C
13,"CS(=O)(=O)c1ccc(-n2cc(C(F)(F)F)nc2-c2ccc(-c3cscn3)cc2)cc1F [Example 153, 1-[3-Fluoro-4-(methylsulfonyl)phenyl]-2-[4-(4-thiazolyl)phenyl]-4-trifluoromethyl-1H-imidazole]",112.5 to 115 °C
14,"Cc1cc(-c2cc(C(F)F)nn2-c2ccc(S(C)(=O)=O)c(F)c2)ccc1-c1cscn1 [Example 194, 4-[4-[3-(Difluoromethyl)-1-[3-Fluoro-4-(methylsulfonyl)phenyl]-1H-pyrazol-5-yl]-2-methylphenyl]-1,3-thiazole]",122.9 °C
15,"NS(=O)(=O)c1ccc(-n2nc(C(F)(F)F)cc2-c2ccc(-c3cscn3)cc2)cc1 (as salt: hydrochloride) [Example 100, 4-[5-[4-(1,3-Thiazol-4-yl)phenyl]-3-(trifluoromethyl)-1H-pyrazol-1-yl]benzenesulfonamide]",188 to 190 °C
16,"Cc1cc(-c2noc(C)c2-c2ccc(S(C)(=O)=O)c(F)c2)ccc1-c1cscn1 [Example 170, 4-[3-Fluoro-4-(methylsulfonyl)phenyl]-5-methyl-3-[3-methyl-4-(1,3-thiazol-4-yl)phenyl]isoxazole]",99.5 °C
17,"Cc1noc(-c2ccc(-c3cscn3)cc2)c1-c1ccc(S(N)(=O)=O)cc1 [Example 190, 4-[3-Methyl-5-[4-(1,3-thiazol-4-yl)phenyl]-4-isoxazolyl]benzenesulfonamide]",236 °C
18,"CS(=O)(=O)c1ccc(-n2nc(C(F)(F)F)cc2-c2ccc(-c3cocn3)cc2)cc1 (as salt: hydrochloride) [Example 95, 4-{4-[1-[4-(Methylsulfonyl)phenyl]-3-(trifluoromethyl)-1H-pyrazol-5-yl]phenyl}-1,3-oxazole]",175 to 177 °C

row,SMILES,melting point
1,"Cc1ccc(-c2ccc(S(C)(=O)=O)cc2)n1-c1ccc(-c2nccs2)cc1 [Example 49, 2-Methyl-5-[4-(methylsulfonyl)phenyl]-1-[4-(2-thiazolyl)phenyl]-1H-pyrrole]",190 to 191 °C
2,"CS(=O)(=O)c1ccc(-n2nc(C(F)(F)F)cc2-c2ccc(-c3ncco3)cc2)cc1 (as salt: hydrochloride) [Example 97, 2-{4-[1-[4-(Methylsulfonyl)phenyl]-3-(trifluoromethyl)-1H-pyrazol-5-yl]phenyl}-1,3-oxazole]",190 to 192 °C
3,"Cc1cc(-c2cc(C(F)(F)F)nn2-c2ccc(S(N)(=O)=O)c(F)c2)ccc1-c1ccco1 [Example 139, 2-Fluoro-4-[5-[4-(2-furyl)-3-methylphenyl]-3-(trifluoromethyl)-1H-pyrazol-1-yl]benzenesulfonamide]",78 to 80 °C
4,"Cc1ccc(-c2ccc(S(C)(=O)=O)cc2)n1-c1ccc(-c2ccco2)cc1 [Example 44, 1-[4-(2-Furyl)phenyl]-2-methyl-5-[4-(methylsulfonyl)phenyl]-1H-pyrrole]",145 to 147 °C
5,"Cc1cc(-c2ccc(-c3ccco3)cc2)n(-c2ccc(S(C)(=O)=O)cc2)c1 [Example 59, 2-[4-(2-Furyl)phenyl]-4-methyl-1-[4-(methylsulfonyl)phenyl]-1H-pyrrole]",193 to 194 °C
6,"NS(=O)(=O)c1ccc(-n2nc(C(F)(F)F)cc2-c2ccc(-c3cscn3)cc2)cc1F (as salt: hydrochloride) [Example 103, 2-Fluoro-4-[5-[4-(1,3-thiazol-4-yl)phenyl]-3-(trifluoromethyl)-1H-pyrazol-1-yl]benzenesulfonamide]",168 to 170 °C
7,"NS(=O)(=O)c1ccc(-n2nc(C(F)(F)F)cc2-c2ccc(-c3cscn3)c(Cl)c2)cc1F (as salt: hydrochloride) [Example 122, 2-Fluoro-4-[5-[3-chloro-4-(1,3-thiazol-4-yl)phenyl]-3-(trifluoromethyl)-1H-pyrazol-1-yl]benzenesulfonamide]",173 to 175 °C
8,"Cc1scnc1-c1ccc(-c2cc(C(F)(F)F)nn2-c2ccc(S(C)(=O)=O)c(F)c2)cc1 [Example 104, 4-{4-[1-[3-Fluoro-4-(methylsulfonyl)phenyl]-3-(trifluoromethyl)-1H-pyrazol-5-yl]phenyl}-5-methyl-1,3-thiazole]",170 to 172 °C
9,"Cc1ccc(-c2ccc(S(C)(=O)=O)c(F)c2)n1-c1ccc(-c2cscn2)cc1 [Example 151, 5-[3-Fluoro-4-(methylsulfonyl)phenyl]-2-methyl-1-[4-(4-thiazolyl)phenyl]-1H-pyrrole]",215 °C
10,"Cc1cc(-c2ccc(S(C)(=O)=O)cc2)n(-c2ccc(-c3ccoc3)cc2)c1 [Example 55, 1-[4-(3-Furyl)phenyl]-4-methyl-2-[4-(methylsulfonyl)phenyl]-1H-pyrrole]",154 to 156 °C
11,"CS(=O)(=O)c1ccc(C2=C(c3ccc(-c4ccsc4)cc3)C(=O)OC2)cc1 [Example 32, 3-[4-(3-Thienyl)phenyl]4-[4-(methylsulfonyl)phenyl]-2-(5H)-furanone]",220 to 222 °C
12,"Cc1cc(-c2ccnn2-c2ccc(S(N)(=O)=O)c(F)c2C(F)F)ccc1-c1cscn1 (as salt: hydrochloride) [Example 195, 3-(Difluoromethyl)-2-fluoro-4-[5-[3-methyl-4-(1,3-thiazol-4-yl)phenyl]-1H-pyrazol-1-yl]benzenesulfonamide]",204.3 °C
13,"Cc1cc(-c2ccco2)ccc1-c1cc(C(F)(F)F)nn1-c1ccc(S(C)(=O)=O)cc1 (as salt: hydrochloride) [Example 78, 1-[4-(Methylsulfonyl)phenyl]-5-[4-(2-furyl)-2-methylphenyl]-3-(trifluoromethyl)-1H-pyrazole]",175 to 177 °C
14,"CCOC(=O)c1cc(-c2ccc(-c3ccco3)cc2)n(-c2ccc(S(C)(=O)=O)cc2)n1 [Example 65, Ethyl 5-[4-(2-furyl)phenyl]-1-[4-(methylsulfonyl)phenyl]-1H-pyrazole-3-carboxylate]",180.9 to 181.1 °C
15,"NS(=O)(=O)c1ccc(C2=C(c3ccc(-c4cscn4)cc3)C(=O)OC2)cc1F [Example 167, 2-Fluoro-4-[5-oxo-4-[4-(1,3-thiazol-4-yl)phenyl]-2,5-dihydro-3-furanyl]benzenesulfonamide]",194.2 °C
16,"CS(=O)(=O)c1ccc(-n2nc(C(=O)N3CCOCC3)cc2-c2ccc(-c3ccco3)cc2)cc1F [Example 130, 1-[3-Fluoro-4-(methylsulfonyl)phenyl]-5-[4-(2-furyl)phenyl]-3-(4-morpholinecarbonyl)-1H-pyrazole]",221 to 222 °C
17,"CN(C)C(=O)c1cc(-c2ccc(-c3ccco3)cc2)n(-c2ccc(S(C)(=O)=O)c(F)c2)n1 (as salt: hydrochloride) [Example 133, N,N-Dimethyl-1-[3-fluoro-4-(methylsulfonyl)phenyl]-5-[4-(2-furyl)phenyl]-1H-pyrazole-3-carboxamide]",167 to 168 °C
